Assays:
Format in all cases: cell-based
[1] = system: lung adenocarcinoma cell A549; assay: MTT in vitro cell growth inhibition, lung adenocarcinoma cell A549 (48 h); details: Homo sapiens, A549 cells
Procedure: (§1) Human breast cancer cell MCF-7, hepatocellular carcinoma cell HepG2, lung adenocarcinoma cell A549 were purchased from Shanghai Cell Bank of Chinese Academy of Sciences. Human leukemia cells HL-60, human leukemia cells adriamycin-resistant strain HL-60/ADR, and human glioblastoma cells U-87MG were purchased from Shanghai Chuanqiu Biotechnology Co. Human cervical cancer HeLa was purchased from Shanghai Jikai Gene Chemistry Technology Co. Human colon cancer cells HCT-116, human brain microvascular endothelial cells hCMEC/D3 were preserved by Tianjin Suntech Pharmaceutical Technology Co. Human colon cancer cells Sw620 and human colon cancer cells LoVo were provided by Tianjin Medical University Hospital.
(§2) Human breast cancer cell MCF-7, hepatocellular carcinoma cell HepG2, lung adenocarcinoma cell A549, human leukemia cell HL-60, human leukemia cell adriamycin-resistant strain HL-60/ADR, human glioblastoma cell U-87MG, human cervical carcinoma cell HeLa, human colon carcinoma cell HCT-116, human colon carcinoma cell Sw620, human colon carcinoma cell LoVo, Human brain microvascular endothelial cells HCMEC/D3 were cultured using DMEM medium. The medium was supplemented with 10% fetal bovine serum and 1% double antibody (penicillin+streptomycin), and the culture environment was an incubator filled with 5% CO2 at a temperature of 37 °C, when the cells basically grew all over the bottom of the dish (about 80%-90%), passaging culture was performed.
(§3) Preparation of MTT solution: Weigh 50 mg of MTT, dissolve it in 10 mL of phosphate buffer solution (PBS), dispense it, and store it at 4 °C away from light, it will be effective within two weeks.
(§4) Take the series of compounds diluted with medium to form 1 mg/ml master batch, before use, precise aspiration of the appropriate amount of sample master batch diluted with medium to form working solutions with different concentration gradients, such as 100 μg/ml, 10 μg/ml, 1 μg/ml, 0.1 μg/ml, 0.01 μg/ml, 0.001 μg/ml and so on.
(§5) 1. Take log phase cells, digest, centrifuge and resuspend. The cell density was adjusted to 1×10^5 cells/mL by adding culture medium, and 100 μl of prepared cell suspension per well was added and inoculated into 96-well cell culture plates, after which they were placed in a cell culture incubator for incubation.
(§6) 2. After 24 h of culture, the test group was added 2 μl of the series of compounds with concentrations of 100 μg/ml, 10 μg/ml, 1 μg/ml, 0.1 μg/ml, 0.01 μg/ml, 0.001 μg/ml, and 4 replicate wells were set up for each concentration, as well as a positive control group (etoposide) and a blank control group.
(§7) 3. The 96-well plates were incubated separately for 48 h and then 20 μl of MTT solution (concentration of 5 mg/ml) was added to each well and incubation was continued for 4 hours in the incubator.
(§8) 4. Remove the 96-well plate from the incubator, carefully aspirate the medium in the wells with a micropipette, and add 150 μl of dimethyl sulfoxide to each well, shake to dissolve the crystals completely, and then measure the absorbance OD value using an enzyme counter at 492 nm.
(§9) 5. The test was repeated three times consecutively and the cell inhibition rate was calculated according to the following formula: cell inhibition rate (%)=[1−OD value of the test group/OD of the blank control group)]×100%, and the IC50 value of the half inhibitory concentration of the samples for inhibiting cell growth was calculated.

[2] = system: human cervical cancer HeLa; assay: MTT in vitro cell growth inhibition, human cervical cancer HeLa (48 h); details: HeLa cells
Procedure: as §1, §2
(§10) Preparation of MTT solution: Weigh 50 mg of MTT, dissolve it in 10 mL of phosphate buffer solution (PBS), dispense it, and store it at 4 °C away from light, it will be effective within two weeks. […]
(§11) 4. Remove the 96-well plate from the incubator, carefully aspirate the medium in the wells with a micropipette, and add 150 μl of dimethyl sulfoxide to each well, shake to dissolve the crystals completely, and then measure the absorbance OD value using an enzyme counter at 492 nm. […]

[3] = system: human leukemia cells HL-60; assay: MTT in vitro cell growth inhibition, human leukemia cells HL-60 (48 h); details: HL-60 cells
Procedure: as §1, §2, §3, §4, §5, §6, §7, §8, §9

[4] = system: human colon cancer cells HCT-116; assay: MTT in vitro cell growth inhibition, human colon cancer cells HCT-116 (48 h); details: HCT116 cells
Procedure: as §1, §2, §3, §4, §5, §6, §7, §8, §9

[5] = system: human brain microvascular endothelial cells hCMEC/D3; assay: MTT in vitro cell growth inhibition, human brain microvascular endothelial cells hCMEC/D3 (48 h)
Procedure: as §1, §2, §3, §4, §5
2. […]
as §11

[6] = system: human breast cancer cell MCF-7; assay: MTT in vitro cell growth inhibition, human breast cancer cell MCF-7 (48 h); details: MCF7, MCF-7 cells
Procedure: as §1, §2, §3, §4, §5, §6, §7, §8, §9

[7] = system: hepatocellular carcinoma cell HepG2; assay: MTT in vitro cell growth inhibition, hepatocellular carcinoma cell HepG2 (48 h); details: Homo sapiens, HepG2 cells
Procedure: as §1, §2, §3, §4, §5, §6, §7, §8, §9

[8] = system: human colon cancer cells Sw620; assay: MTT in vitro cell growth inhibition, human colon cancer cells Sw620 (48 h); details: SW-620
Procedure: as §1, §2, §10, §11

[9] = system: human colon cancer cells LoVo; assay: MTT in vitro cell growth inhibition, human colon cancer cells LoVo (48 h)
Procedure: as §1, §2, §10, §11

COC(=O)C[C@](O)(CCCC(F)(F)F)C(=O)O[C@@H]1C(OC)=C[C@]23CCCN2CCc2cc4c(cc2[C@H]13)OCO4 [Compound I-2-29]
IC50 [1]: 0.061 µM | IC50 [2]: 0.025 µM

CCCCC(O)(C/C=N\OC(=O)C(C)C)C(=O)O[C@@H]1C(OC)=C[C@]23CCCN2CCc2cc4c(cc2[C@H]13)OCO4 (stereo partly drawn) [Compound I-3-24]
IC50 [1]: 0.036 µM | IC50 [3]: 0.067 µM | IC50 [4]: 0.024 µM | IC50 [5]: 0.245 µM

C=CC(=O)O/N=C/CC(O)(CCC(C)C)C(=O)O[C@@H]1C(OC)=C[C@]23CCCN2CCc2cc4c(cc2[C@H]13)OCO4 (stereo partly drawn) [Compound I-3-22]
IC50 [1]: 0.039 µM | IC50 [4]: 0.048 µM

COC(=O)C[C@](O)(CCc1cccc(F)c1F)C(=O)O[C@@H]1C(OC)=C[C@]23CCCN2CCc2cc4c(cc2[C@H]13)OCO4 [Compound I-2-35]
IC50 [6]: 0.11 µM | IC50 [7]: 0.023 µM | IC50 [1]: 0.06 µM

COC1=C[C@]23CCCN2CCc2cc4c(cc2[C@@H]3[C@@H]1OC(=O)C(O)(C/C=N\OC(C)=O)CCC(C)C)OCO4 (stereo partly drawn) [Compound I-3-13]
IC50 [1]: 0.045 µM | IC50 [3]: 0.018 µM | IC50 [4]: 0.016 µM

COC1=C[C@]23CCCN2CCc2cc4c(cc2[C@@H]3[C@@H]1OC(=O)C(O)(C/C=N/OC(=O)[C@H](C)c1ccc2cc(OC)ccc2c1)CCC(C)C)OCO4 (stereo partly drawn) [Compound I-3-31]
IC50 [1]: 0.021 µM | IC50 [3]: 0.02 µM | IC50 [8]: 0.0034 µM | IC50 [9]: 0.045 µM | IC50 [5]: 0.024 µM

CCCCC(O)(C/C=N\OC(C)=O)C(=O)O[C@@H]1C(OC)=C[C@]23CCCN2CCc2cc4c(cc2[C@H]13)OCO4 (stereo partly drawn) [Compound I-3-14]
IC50 [1]: 0.044 µM | IC50 [4]: 0.069 µM

COC1=C[C@]23CCCN2CCc2cc4c(cc2[C@@H]3[C@@H]1OC(=O)C(O)(C/C=N/OC(C)=O)CCC=C(C)C)OCO4 (stereo partly drawn) [Compound I-3-15]
IC50 [1]: 0.083 µM

COC(=O)C[C@](O)(CCc1cccc(NC(=O)NC2CCCCC2)c1)C(=O)O[C@@H]1C(OC)=C[C@]23CCCN2CCc2cc4c(cc2C13)OCO4 (stereo partly drawn) [Compound I-1-9]
IC50 [3]: 0.0089 µM

COC(=O)C[C@](O)(CCc1cccc(NC(=O)Nc2ccc(C)cc2)c1)C(=O)O[C@@H]1C(OC)=C[C@]23CCCN2CCc2cc4c(cc2[C@H]13)OCO4 [Compound I-1-1]
IC50 [6]: 0.0043 µM | IC50 [7]: 0.025 µM

COC(=O)C[C@](O)(CCc1cccc(NC(C)=O)c1)C(=O)O[C@@H]1C(OC)=C[C@]23CCCN2CCc2cc4c(cc2[C@H]13)OCO4 [Compound I-2-9]
IC50 [6]: 0.034 µM | IC50 [7]: 0.048 µM | IC50 [3]: 0.0033 µM

COC1=C[C@]23CCCN2CCc2cc4c(cc2[C@@H]3[C@@H]1OC(=O)C(O)(C/C=N\OC(=O)C(C)C)CCC(C)C)OCO4 (stereo partly drawn) [Compound I-3-23]
IC50 [1]: 0.021 µM | IC50 [3]: 0.034 µM | IC50 [4]: 0.071 µM

COC(=O)C[C@](O)(CCc1cccc(NC(=O)NC2CCCC2)c1)C(=O)O[C@@H]1C(OC)=C[C@]23CCCN2CCc2cc4c(cc2C13)OCO4 (stereo partly drawn) [Compound I-1-2]
IC50 [6]: 0.0005 µM | IC50 [7]: 0.014 µM | IC50 [1]: 0.07 µM | IC50 [3]: 0.0077 µM | IC50 [8]: 0.012 µM | IC50 [9]: 0.057 µM

COC(=O)C[C@](O)(CCc1ccccc1C(F)(F)F)C(=O)O[C@@H]1C(OC)=C[C@]23CCCN2CCc2cc4c(cc2[C@H]13)OCO4 [Compound I-2-38]
IC50 [6]: 0.22 µM | IC50 [7]: 0.075 µM | IC50 [1]: 0.29 µM

COC(=O)C[C@](O)(CCc1cccc2ccccc12)C(=O)O[C@@H]1C(OC)=C[C@]23CCCN2CCc2cc4c(cc2[C@H]13)OCO4 [Compound I-2-43]
IC50 [7]: 0.015 µM

COC(=O)C[C@](O)(CCc1cccc(N)c1)C(=O)O[C@@H]1C(OC)=C[C@]23CCCN2CCc2cc4c(cc2[C@H]13)OCO4 [Compound I-2-5]
IC50 [6]: 0.011 µM | IC50 [7]: 0.04 µM | IC50 [3]: 0.0031 µM

COC(=O)C[C@@](O)(CCc1cccc([N+](=O)[O-])c1)C(=O)O[C@@H]1C(OC)=C[C@]23CCCN2CCc2cc4c(cc2C13)OCO4 (stereo partly drawn) [Compound I-2-2]
IC50 [6]: 0.014 µM | IC50 [7]: 0.029 µM

COC(=O)C[C@](O)(CCCC(C)(C)O)C(=O)O[C@@H]1C(OC)=C[C@]23CCCN2CCc2cc4c(cc2[C@H]13)OCO4 [HHT, homoharringtonine, reference compound]
IC50 [6]: 0.04 µM | IC50 [7]: 0.022 µM | IC50 [1]: 0.19 µM | IC50 [3]: 0.04 µM | IC50 [2]: 0.034 µM | IC50 [4]: 0.026 µM | IC50 [8]: 0.035 µM | IC50 [9]: 0.335 µM | IC50 [5]: 0.171 µM

COC1=C[C@]23CCCN2CCc2cc4c(cc2[C@@H]3[C@@H]1OC(=O)C(O)(CCC(C)C)CC(=O)SC)OCO4 (stereo partly drawn) [Compound I-2-52]
IC50 [4]: 0.046 µM

COC1=C[C@]23CCCN2CCc2cc4c(cc2[C@@H]3[C@@H]1OC(=O)C(O)(C/C=N/OC(=O)NC1CCCC1)CCC(C)C)OCO4 (stereo partly drawn) [Compound I-3-46]
IC50 [1]: 0.053 µM | IC50 [3]: 0.042 µM | IC50 [5]: 0.06 µM

COC(=O)C[C@](O)(CCC(F)(F)C(F)(F)F)C(=O)O[C@@H]1C(OC)=C[C@]23CCCN2CCc2cc4c(cc2[C@H]13)OCO4 [Compound I-2-30]
IC50 [1]: 0.021 µM | IC50 [2]: 0.028 µM

COC1=C[C@]23CCCN2CCc2cc4c(cc2[C@@H]3[C@@H]1OC(=O)C(O)(C/C=N\OC(=O)C(C)C)CCC=C(C)C)OCO4 (stereo partly drawn) [Compound I-3-25]
IC50 [1]: 0.092 µM

COC(=O)C[C@](O)(CCc1ccc2ccccc2c1)C(=O)O[C@@H]1C(OC)=C[C@]23CCCN2CCc2cc4c(cc2[C@H]13)OCO4 [Compound I-2-44]
IC50 [6]: 0.065 µM | IC50 [7]: 0.095 µM | IC50 [1]: 0.02 µM | IC50 [3]: 0.0087 µM

COC1=C[C@]23CCCN2CCc2cc4c(cc2[C@@H]3[C@@H]1OC(=O)C(O)(C/C=N/OC(=O)[C@H](C)c1ccc2cc(OC)ccc2c1)CCc1ccc2c(c1)CCO2)OCO4 (stereo partly drawn) [Compound I-3-34]
IC50 [1]: 0.283 µM | IC50 [4]: 0.026 µM

COC(=O)C[C@](O)(CCc1cccc(NC(=O)Nc2ccc(OC)cc2)c1)C(=O)O[C@@H]1C(OC)=C[C@]23CCCN2CCc2cc4c(cc2C13)OCO4 (stereo partly drawn) [Compound I-1-22]
IC50 [3]: 0.0135 µM

COC(=O)C[C@](O)(CCc1ccc(SC)cc1)C(=O)O[C@@H]1C(OC)=C[C@]23CCCN2CCc2cc4c(cc2[C@H]13)OCO4 [Compound I-2-41]
IC50 [6]: 0.06 µM | IC50 [7]: 0.01 µM | IC50 [1]: 0.15 µM

COC(=O)C[C@](O)(CCc1ccc(OC)cc1)C(=O)O[C@@H]1C(OC)=C[C@]23CCCN2CCc2cc4c(cc2[C@H]13)OCO4 [Compound I-2-45]
IC50 [6]: 0.09 µM | IC50 [7]: 0.017 µM | IC50 [1]: 0.21 µM

— patent publication US20260365664A1, “HARRINGTONINE DERIVATIVE, PHARMACEUTICAL COMPOSITION THEREOF, PREPARATION METHOD THEREFOR, AND USE THEREOF” (NANKAI UNIVERSITY, priority 2022, published 2026)
